Laboratory results taken from patent US7118895B2, “Process for producing aglycon by using diglycosidase and flavor-improved food containing the aglycon and converting agent to be used in the process” (Amano Enzyme Inc., priority 2000, dated 2006).

System: Crude diglycosidase
Assay: Examination of substrate concentration in the conversion into isoflavone aglycons by diglycosidase using soybean materials;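 note: percent of the isoflavone family total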
Type: biochemical, Penicillium multicolor IAM7153
In short: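 Soybean materials (roasted soy flour, soymilk, defatted soybean, concentrated soy protein) at 2–30% (w/v) in 20 mM acetate pH 4.0 were reacted with crude diglycosidase at 55° C with shaking; enzyme solution added was 1.88 AU/mL. Samples taken at 0, 1, 3 and 6 h were ethanol-extracted and analyzed by HPLC.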

Decomposition efficiency: ratio of each glycoside/aglycon within its isoflavone family (roasted soy flour, substrate concentration 2%, heat treatment of enzyme no, reaction time 0 h): 50.2%
Decomposition efficiency: ratio of each glycoside/aglycon within its isoflavone family (roasted soy flour, substrate concentration 2%, heat treatment of enzyme no, reaction time 1 h): not detected
Decomposition efficiency: ratio of each glycoside/aglycon within its isoflavone family (roasted soy flour, substrate concentration 2%, heat treatment of enzyme no, reaction time 3 h): not detected
Decomposition efficiency: ratio of each glycoside/aglycon within its isoflavone family (roasted soy flour, substrate concentration 2%, heat treatment of enzyme no, reaction time 6 h): not detected
Decomposition efficiency: ratio of each glycoside/aglycon within its isoflavone family (roasted soy flour, substrate concentration 2%, heat treatment of enzyme yes, reaction time 6 h): 53.4%
Decomposition efficiency: ratio of each glycoside/aglycon within its isoflavone family (roasted soy flour, substrate concentration 5%, heat treatment of enzyme no, reaction time 0 h): 54.8%
Decomposition efficiency: ratio of each glycoside/aglycon within its isoflavone family (roasted soy flour, substrate concentration 5%, heat treatment of enzyme no, reaction time 1 h): not detected
Decomposition efficiency: ratio of each glycoside/aglycon within its isoflavone family (roasted soy flour, substrate concentration 5%, heat treatment of enzyme no, reaction time 3 h): not detected
Decomposition efficiency: ratio of each glycoside/aglycon within its isoflavone family (roasted soy flour, substrate concentration 5%, heat treatment of enzyme no, reaction time 6 h): not detected
Decomposition efficiency: ratio of each glycoside/aglycon within its isoflavone family (roasted soy flour, substrate concentration 5%, heat treatment of enzyme yes, reaction time 6 h): 54.8%
Decomposition efficiency: ratio of each glycoside/aglycon within its isoflavone family (roasted soy flour, substrate concentration 10%, heat treatment of enzyme no, reaction time 0 h): 70.3%
Decomposition efficiency: ratio of each glycoside/aglycon within its isoflavone family (roasted soy flour, substrate concentration 10%, heat treatment of enzyme no, reaction time 1 h): not detected
Decomposition efficiency: ratio of each glycoside/aglycon within its isoflavone family (roasted soy flour, substrate concentration 10%, heat treatment of enzyme no, reaction time 3 h): not detected
Decomposition efficiency: ratio of each glycoside/aglycon within its isoflavone family (roasted soy flour, substrate concentration 10%, heat treatment of enzyme no, reaction time 6 h): not detected
Decomposition efficiency: ratio of each glycoside/aglycon within its isoflavone family (roasted soy flour, substrate concentration 10%, heat treatment of enzyme yes, reaction time 6 h): 55.0%
Decomposition efficiency: ratio of each glycoside/aglycon within its isoflavone family (roasted soy flour, substrate concentration 20%, heat treatment of enzyme no, reaction time 0 h): 59.6%
Decomposition efficiency: ratio of each glycoside/aglycon within its isoflavone family (roasted soy flour, substrate concentration 20%, heat treatment of enzyme no, reaction time 1 h): not detected
Decomposition efficiency: ratio of each glycoside/aglycon within its isoflavone family (roasted soy flour, substrate concentration 20%, heat treatment of enzyme no, reaction time 3 h): not detected
Decomposition efficiency: ratio of each glycoside/aglycon within its isoflavone family (roasted soy flour, substrate concentration 20%, heat treatment of enzyme no, reaction time 6 h): not detected
Decomposition efficiency: ratio of each glycoside/aglycon within its isoflavone family (roasted soy flour, substrate concentration 20%, heat treatment of enzyme yes, reaction time 6 h): 56.0%
Decomposition efficiency: ratio of each glycoside/aglycon within its isoflavone family (roasted soy flour, substrate concentration 30%, heat treatment of enzyme no, reaction time 0 h): 55.9%
Decomposition efficiency: ratio of each glycoside/aglycon within its isoflavone family (roasted soy flour, substrate concentration 30%, heat treatment of enzyme no, reaction time 1 h): not detected
Decomposition efficiency: ratio of each glycoside/aglycon within its isoflavone family (roasted soy flour, substrate concentration 30%, heat treatment of enzyme no, reaction time 3 h): not detected
Decomposition efficiency: ratio of each glycoside/aglycon within its isoflavone family (roasted soy flour, substrate concentration 30%, heat treatment of enzyme no, reaction time 6 h): not detected
Decomposition efficiency: ratio of each glycoside/aglycon within its isoflavone family (roasted soy flour, substrate concentration 30%, heat treatment of enzyme yes, reaction time 6 h): 56.9%
Decomposition efficiency: ratio of each glycoside/aglycon within its isoflavone family (soymilk, substrate concentration 2%, heat treatment of enzyme no, reaction time 0 h): 71.8%
Decomposition efficiency: ratio of each glycoside/aglycon within its isoflavone family (soymilk, substrate concentration 2%, heat treatment of enzyme no, reaction time 1 h): not detected
Decomposition efficiency: ratio of each glycoside/aglycon within its isoflavone family (soymilk, substrate concentration 2%, heat treatment of enzyme no, reaction time 3 h): not detected
Decomposition efficiency: ratio of each glycoside/aglycon within its isoflavone family (soymilk, substrate concentration 2%, heat treatment of enzyme no, reaction time 6 h): not detected
Decomposition efficiency: ratio of each glycoside/aglycon within its isoflavone family (soymilk, substrate concentration 2%, heat treatment of enzyme yes, reaction time 6 h): 51.8%
Decomposition efficiency: ratio of each glycoside/aglycon within its isoflavone family (soymilk, substrate concentration 5%, heat treatment of enzyme no, reaction time 0 h): 49.4%
Decomposition efficiency: ratio of each glycoside/aglycon within its isoflavone family (soymilk, substrate concentration 5%, heat treatment of enzyme no, reaction time 1 h): not detected
Decomposition efficiency: ratio of each glycoside/aglycon within its isoflavone family (soymilk, substrate concentration 5%, heat treatment of enzyme no, reaction time 3 h): not detected
Decomposition efficiency: ratio of each glycoside/aglycon within its isoflavone family (soymilk, substrate concentration 5%, heat treatment of enzyme no, reaction time 6 h): not detected
Decomposition efficiency: ratio of each glycoside/aglycon within its isoflavone family (soymilk, substrate concentration 5%, heat treatment of enzyme yes, reaction time 6 h): 56.7%
Decomposition efficiency: ratio of each glycoside/aglycon within its isoflavone family (soymilk, substrate concentration 10%, heat treatment of enzyme no, reaction time 0 h): 52.5%
Decomposition efficiency: ratio of each glycoside/aglycon within its isoflavone family (soymilk, substrate concentration 10%, heat treatment of enzyme no, reaction time 1 h): not detected
Decomposition efficiency: ratio of each glycoside/aglycon within its isoflavone family (soymilk, substrate concentration 10%, heat treatment of enzyme no, reaction time 3 h): not detected
Decomposition efficiency: ratio of each glycoside/aglycon within its isoflavone family (soymilk, substrate concentration 10%, heat treatment of enzyme no, reaction time 6 h): not detected
Decomposition efficiency: ratio of each glycoside/aglycon within its isoflavone family (soymilk, substrate concentration 10%, heat treatment of enzyme yes, reaction time 6 h): 56.8%
Decomposition efficiency: ratio of each glycoside/aglycon within its isoflavone family (soymilk, substrate concentration 20%, heat treatment of enzyme no, reaction time 0 h): 52.4%
Decomposition efficiency: ratio of each glycoside/aglycon within its isoflavone family (soymilk, substrate concentration 20%, heat treatment of enzyme no, reaction time 1 h): not detected
Decomposition efficiency: ratio of each glycoside/aglycon within its isoflavone family (soymilk, substrate concentration 20%, heat treatment of enzyme no, reaction time 3 h): not detected
Decomposition efficiency: ratio of each glycoside/aglycon within its isoflavone family (soymilk, substrate concentration 20%, heat treatment of enzyme no, reaction time 6 h): not detected
Decomposition efficiency: ratio of each glycoside/aglycon within its isoflavone family (soymilk, substrate concentration 20%, heat treatment of enzyme yes, reaction time 6 h): 55.5%
Decomposition efficiency: ratio of each glycoside/aglycon within its isoflavone family (soymilk, substrate concentration 30%, heat treatment of enzyme no, reaction time 0 h): 50.9%
Decomposition efficiency: ratio of each glycoside/aglycon within its isoflavone family (soymilk, substrate concentration 30%, heat treatment of enzyme no, reaction time 1 h): not detected
Decomposition efficiency: ratio of each glycoside/aglycon within its isoflavone family (soymilk, substrate concentration 30%, heat treatment of enzyme no, reaction time 3 h): not detected
Decomposition efficiency: ratio of each glycoside/aglycon within its isoflavone family (soymilk, substrate concentration 30%, heat treatment of enzyme no, reaction time 6 h): not detected
Decomposition efficiency: ratio of each glycoside/aglycon within its isoflavone family (soymilk, substrate concentration 30%, heat treatment of enzyme yes, reaction time 6 h): 55.8%
SMILES: COc1cc2c(=O)c(-c3ccc(O)cc3)coc2cc1O[C@@H]1O[C@H](CO)[C@@H](O)[C@H](O)[C@H]1O [glycitin]
